Source: article PMC5500991, “Substituted arylsulphonamides as inhibitors of perforin-mediated lysis” (European Journal of Medicinal Chemistry, 2017)
Where a name gives a salt, the structure may show the parent alone.

Tests used:
[1] = Toxicity to KHYG1 NK cells (Trypan blue exclusion); format: cell-based, human; settings: human, viability of KHYG1 NK cells after 24 h, n = 3
Experimental: The toxicity assay was carried out in exactly the same manner as the killing assay above, but instead of adding the labelled K562 target cells, 100 μL of RPMI 0.1% BSA was added. Cells were incubated for 4 h at 37 °C and then washed ×3 in RPMI + 0.1% BSA. […] Trypan blue was added to each well. Viable (clear) cells and total (clear + blue) cells were counted, and the percentage of viable cells was calculated compared to DMSO treated cell control (% viability).

[2] = molecular target: T1, perforin delivered by KHYG1 NK cells (Homo sapiens, UniProt P14222); assay: KHYG1 inhibitory assay: lysis of 51Cr-labelled K562 target cells by KHYG1 NK cells; format: cell-based; settings: 51Cr-labelled K562 target cells co-incubated with KHYG1 human NK cells, vs untreated control, n = 4
T1 construct: The use of whole NK cells to deliver perforin provides a more realistic model of conditions in vivo; endogenous in cells; host or cells: KHYG1 human NK cells (effector); K562 leukemia target cells
T1 sequence (P14222 22-555): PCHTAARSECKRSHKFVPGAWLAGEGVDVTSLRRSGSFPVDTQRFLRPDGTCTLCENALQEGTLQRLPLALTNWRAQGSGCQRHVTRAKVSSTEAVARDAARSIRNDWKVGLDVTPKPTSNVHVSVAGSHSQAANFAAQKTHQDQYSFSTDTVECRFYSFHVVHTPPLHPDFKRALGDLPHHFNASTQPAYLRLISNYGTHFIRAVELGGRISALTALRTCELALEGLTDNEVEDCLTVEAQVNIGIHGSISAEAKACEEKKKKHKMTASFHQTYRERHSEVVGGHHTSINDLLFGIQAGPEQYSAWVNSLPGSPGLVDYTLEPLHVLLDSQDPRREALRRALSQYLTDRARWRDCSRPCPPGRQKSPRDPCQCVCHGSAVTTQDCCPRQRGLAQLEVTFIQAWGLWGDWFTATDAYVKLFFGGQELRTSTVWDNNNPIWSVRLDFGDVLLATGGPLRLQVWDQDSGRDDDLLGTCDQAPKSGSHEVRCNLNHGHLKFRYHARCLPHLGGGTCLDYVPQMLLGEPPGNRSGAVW
Experimental: The inhibitory function is then determined by identifying the number of untreated or inhibitor treated effector cells required to kill the same number of targets.

inhibition at 10 µM [2] [%]	melting point [°C]	Structure (SMILES)	viability at 24 h, 10 µM [1] [%]
0		Cc1ccc(S(=O)(=O)Nc2ccccn2)cc1-c1ccc(-c2ccc3c(c2)CN(C)C3=O)s1 [Compound 16, Sodium (4-methyl-3-(5-(2-methyl-1-oxoisoindolin-5-yl)thiophen-2-yl)phenylsulfonyl)(pyridin-2-yl)amide]	96.1 ± 6
0		CN1Cc2cc(-c3ccc(-c4cc(NS(=O)(=O)c5ccccn5)ccc4F)s3)ccc2C1=O [Compound 17, N-{4-Fluoro-3-[5-(2-methyl-1-oxo-2,3-dihydro-1H-isoindol-5-yl)-2-thienyl]phenyl}-2-pyridinesulfonamide]	91.4 ± 6.5
	278 to 280	COc1cccc(S(=O)(=O)Nc2cncc(-c3ccc(-c4ccc5c(c4)CN(C)C5=O)s3)c2)c1 [Compound 38, 3-Methoxy-N-(5-(5-(2-methyl-1-oxoisoindolin-5-yl)thiophen-2-yl)pyridin-3-yl)benzenesulfonamide]	
	282 to 285	CN1Cc2cc(-c3ccc(-c4cncc(NS(=O)(=O)c5ccc(F)c(F)c5)c4)s3)ccc2C1=O [Compound 25, 3,4-Difluoro-N-(5-(5-(2-methyl-1-oxoisoindolin-5-yl)thiophen-2-yl)pyridin-3-yl)benzenesulfonamide]	
	256 to 259	CN1Cc2cc(-c3ccc(-c4cncc(NS(=O)(=O)c5ccc(Cl)c(Cl)c5)c4)s3)ccc2C1=O [Compound 30, 3,4-Dichloro-N-(5-(5-(2-methyl-1-oxoisoindolin-5-yl)thiophen-2-yl)pyridin-3-yl)benzenesulfonamide]	
	303 to 307	CN1Cc2cc(-c3ccc(-c4cncc(NS(=O)(=O)c5cccc(Br)c5)c4)s3)ccc2C1=O [Compound 33, 3-Bromo-N-(5-(5-(2-methyl-1-oxoisoindolin-5-yl)thiophen-2-yl)pyridin-3-yl)benzenesulfonamide]	
	> 300	CN1Cc2cc(-c3ccc(-c4cncc(NS(=O)(=O)c5ccsc5)c4)s3)ccc2C1=O [Compound 69, N-(5-(5-(2-Methyl-1-oxoisoindolin-5-yl)thiophen-2-yl)pyridin-3-yl)thiophene-3-sulfonamide]	
	292 to 295	CN1Cc2cc(-c3ccc(-c4cncc(NS(=O)(=O)c5ccc(C(F)(F)F)cc5Cl)c4)s3)ccc2C1=O [Compound 64, 2-Chloro-N-(5-(5-(2-methyl-1-oxoisoindolin-5-yl)thiophen-2-yl)pyridin-3-yl)-4-(trifluoromethyl)benzenesulfonamide]	
	299 to 303	CN1Cc2cc(-c3ccc(-c4cncc(NS(=O)(=O)c5ccccc5Cl)c4)s3)ccc2C1=O [Compound 27, 2-Chloro-N-(5-(5-(2-methyl-1-oxoisoindolin-5-yl)thiophen-2-yl)pyridin-3-yl)benzenesulfonamide]	
	276 to 279	CN1Cc2cc(-c3ccc(-c4cncc(NS(=O)(=O)c5ccc(Br)cc5Br)c4)s3)ccc2C1=O [Compound 35, 2,4-Dibromo-N-(5-(5-(2-methyl-1-oxoisoindolin-5-yl)thiophen-2-yl)pyridin-3-yl)benzenesulfonamides]	
	302 to 306	CN1Cc2cc(-c3ccc(-c4cccc(S(=O)(=O)Nc5ccccn5)c4)s3)ccc2C1=O (as salt: sodium) [Compound 14, sodium ((3-(5-(2-methyl-1-oxoisoindolin-5-yl)thiophen-2-yl)phenyl)sulfonyl)(pyridin-2-yl)amide]	
	269 to 272	CN1Cc2cc(-c3ccc(-c4cncc(NS(=O)(=O)c5cccc(Cl)c5F)c4)s3)ccc2C1=O [Compound 60, 3-Chloro-2-fluoro-N-(5-(5-(2-methyl-1-oxoisoindolin-5-yl)thiophen-2-yl)pyridin-3-yl)benzenesulfonamide]	
	250 to 254	COC(=O)c1cccc(S(=O)(=O)Nc2cncc(-c3ccc(-c4ccc5c(c4)CN(C)C5=O)s3)c2)c1 [Compound 52, Methyl 3-(N-(5-(5-(2-methyl-1-oxoisoindolin-5-yl)thiophen-2-yl)pyridin-3-yl)sulfamoyl)benzoate]	
	300 to 304	CN1Cc2cc(-c3ccc(-c4cncc(NS(=O)(=O)c5cccs5)c4)s3)ccc2C1=O [Compound 68, N-(5-(5-(2-Methyl-1-oxoisoindolin-5-yl)thiophen-2-yl)pyridin-3-yl)thiophene-2-sulfonamide]	
	322 to 325	COc1ccc(-c2ccc(-c3ccc4c(c3)CN(C)C4=O)s2)cc1S(=O)(=O)Nc1ccccn1 (as salt: sodium) [Compound 19, Sodium ((2-methoxy-5-(5-(2-methyl-1-oxoisoindolin-5-yl)thiophen-2-yl)phenyl)sulfonyl)(pyridin-2-yl)amide]	
	276 to 279	CN1Cc2cc(-c3ccc(-c4cncc(NS(=O)(=O)c5ccc(Br)cc5)c4)s3)ccc2C1=O [Compound 34, 4-Bromo-N-(5-(5-(2-methyl-1-oxoisoindolin-5-yl)thiophen-2-yl)pyridin-3-yl)benzenesulfonamide]	
	280 to 283	Cc1cc(F)ccc1S(=O)(=O)Nc1cncc(-c2ccc(-c3ccc4c(c3)CN(C)C4=O)s2)c1 [Compound 61, 4-Fluoro-2-methyl-N-(5-(5-(2-methyl-1-oxoisoindolin-5-yl)thiophen-2-yl)pyridin-3-yl) benzenesulphonamide]	
	291 to 295	CN1Cc2cc(-c3ccc(-c4cncc(NS(=O)(=O)c5cccc(Cl)c5)c4)s3)ccc2C1=O [Compound 28, 3-Chloro-N-(5-(5-(2-methyl-1-oxoisoindolin-5-yl)thiophen-2-yl)pyridin-3-yl)benzenesulfonamide]	
	245 to 249	CN1Cc2cc(-c3ccc(-c4cncc(NS(=O)(=O)c5ccc(-c6ccno6)s5)c4)s3)ccc2C1=O [Compound 71, 5-(Isoxazol-5-yl)-N-(5-(5-(2-methyl-1-oxoisoindolin-5-yl)thiophen-2-yl)pyridin-3-yl)thiophene-2-sulfonamide]	
	230 to 232	CN1Cc2cc(-c3ccc(-c4cncc(NS(=O)(=O)c5cccc(OC(F)(F)F)c5)c4)s3)ccc2C1=O [Compound 42, N-(5-(5-(2-Methyl-1-oxoisoindolin-5-yl)thiophen-2-yl)pyridin-3-yl)-3-(trifluoromethoxy)benzenesulfonamide]	
	254 to 258	COc1ccc(S(=O)(=O)Nc2cncc(-c3ccc(-c4ccc5c(c4)CN(C)C5=O)s3)c2)cc1 [Compound 39, 4-Methoxy-N-(5-(5-(2-methyl-1-oxoisoindolin-5-yl)thiophen-2-yl)pyridin-3-yl)benzenesulfonamide]	
	292 to 294	CN1Cc2cc(-c3ccc(-c4cncc(NS(=O)(=O)c5cccc(F)c5)c4)s3)ccc2C1=O [Compound 23, 3-Fluoro-N-(5-(5-(2-methyl-1-oxoisoindolin-5-yl)thiophen-2-yl)pyridin-3-yl)benzenesulfonamide]	
	300 to 303	CN1Cc2cc(-c3ccc(-c4cncc(NS(=O)(=O)c5ccccc5)c4)s3)ccc2C1=O [Compound 21, N-(5-(5-(2-Methyl-1-oxoisoindolin-5-yl)thiophen-2-yl)pyridin-3-yl)benzenesulphonamide]	
	209 to 212	COC(=O)c1ccccc1S(=O)(=O)Nc1cncc(-c2ccc(-c3ccc4c(c3)CN(C)C4=O)s2)c1 [Compound 51, Methyl 2-(N-(5-(5-(2-methyl-1-oxoisoindolin-5-yl)thiophen-2-yl)pyridin-3-yl)sulfamoyl)benzoate]	
	274 to 277	Cc1ccc(NS(=O)(=O)c2ccccn2)cc1-c1ccc(-c2ccc3c(c2)CN(C)C3=O)s1 [Compound 15, N-(4-Methyl-3-(5-(2-methyl-1-oxoisoindolin-5-yl)thiophen-2-yl)phenyl)pyridine-2-sulfonamide]	
	> 310	CN1Cc2cc(-c3ccc(-c4cncc(NS(=O)(=O)c5ccccc5C#N)c4)s3)ccc2C1=O [Compound 48, 2-Cyano-N-(5-(5-(2-methyl-1-oxoisoindolin-5-yl)thiophen-2-yl)pyridin-3-yl)benzenesulfonamide]	
	278 to 281	CN1Cc2cc(-c3ccc(-c4cncc(NS(=O)(=O)c5ccc(-c6cnco6)cc5)c4)s3)ccc2C1=O [Compound 70, N-(5-(5-(2-Methyl-1-oxoisoindolin-5-yl)thiophen-2-yl)pyridin-3-yl)-4-(oxazol-5-yl)benzenesulfonamides]	
	269 to 272	CN1Cc2cc(-c3ccc(-c4cncc(NS(=O)(=O)c5ccccc5S(C)(=O)=O)c4)s3)ccc2C1=O [Compound 56, N-(5-(5-(2-Methyl-1-oxoisoindolin-5-yl)thiophen-2-yl)pyridin-3-yl)-2-(methylsulfonyl)benzenesulfonamide]	
